# Source: patent US20190015467A1, “AGENT FOR PREVENTING OR AMELIORATING UNEVEN SKIN TONE” (KAO CORPORATION, priority 2017, published 2019)
# What was measured:
# [1] = tested on: skin at the elbow site of AA; assay: Organ culture of AA elbow skin with Torin 1: Fontana-Masson melanin staining and image analysis; assay type: cell-based, human; details: Torin 1 1 μM, tissue culture 5 days, vs absence of Torin 1; n=4, paired t-test p<0.05
# Description: Meanwhile, the sections were subjected to melanin staining (Melanin Stain), separately. The sections were immersed in a 4% PFA/PBS solution for 10 minutes to be fixed. The fixed sections were washed with distilled water (DDW) for 5 minutes 3 times in total, and thereafter a Fontana-ammonia silver solution (Muto) was added dropwise thereto, followed by treatment at room temperature for 30 minutes. Then, the sections were washed with DDW for 5 minutes 3 times in total, and a Kernechtrot solution (Muto) was added dropwise thereto, followed by treatment for 3 minutes, for nuclear staining. The excess staining solution was washed away with DDW, followed by dehydration, clearing, and mounting with Malinol (Muto).
# From skin at the elbow site of four AA women, skin tissues were collected through punch biopsy by a dermatologist. The collected tissues were halved with a scalpel, and the tissues were cultured for 5 days in the presence or absence of mTORC1 inhibitor, Torin 1 (Cayman Chemical, #10997) to a final concentration of 1 μM. […] Further, melanin was visualized by Fontana-Masson staining, and the epidermal stratum corneum thickness and the melanin deposition area were calculated using an image analysis software (Image J).
# [2] = tested on: cultured keratinocytes derived from human neonatal foreskin; assay: Gene expression by quantitative PCR in Torin 1-treated cultured keratinocytes; assay type: cell-based; details: 24 hours culture, ANOVA, Dunnett test p<0.05
# Description: Torin 1 was added to cultured keratinocytes derived from human neonatal foreskin, and the mixture was cultured for 24 hours in an environment of 37° C. and 5% CO2. For the cell culture, a culture medium obtained by adding a predetermined growth additive (Humedia KG2, manufactured by KURABO INDUSTRIES LTD.) to Epilife culture medium (Life Technologies) was used. RNA was extracted from the keratinocytes, and the gene expression was analyzed by quantitative PCR using a Taqman probe (Life Technologies).
# mTORC1 = assay: Organ culture of AA elbow skin with Torin 1: immunohistochemical analysis of mTOR phosphorylation; assay type: cell-based, human; details: Torin 1 1 μM, tissue culture 5 days; paired t-test p<0.05
# Description: The technique of immunohistochemical analyses will be described. The sections were immersed in acetone or a 4% PFA/PBS solution for 10 minutes to be fixed. The fixed sections were washed with PBS-T (0.05% Tween-20/PBS) for 5 minutes 3 times in total and were blocked with a 1% BSA/PBS solution for 30 minutes. Subsequently, after the sections were subjected to overnight treatment at 4° C. with a primary antibody and were washed with PBS for 5 minutes 3 times in total, a secondary antibody (Jackson ImmunoResearch, 1:100 or 1:200) fluorescent labeled with FITC, RR-X, or Cy3 was added dropwise thereto, followed by treatment at 37° C. for 30 minutes. […]
# The produced preparations were subjected to tissue observation and photographing using an inverted microscope (AxioVision, manufactured by Carl Zeiss Vision International GmbH) or a confocal laser microscope (LSM710, manufactured by Carl Zeiss Vision International GmbH). The captured images were analyzed using an image analysis software, and the expression levels of Pmel17, which is a marker of melanocyte growth and activation, cell proliferation marker Ki67, Filaggrin (FLG), Loricrin (LOR), and Transglutaminase 1 (TGM1), which are keratinization-related factors, were quantitated. Further, using RGB Profile Plot, which is an image analysis software, the fluorescence intensity distribution in the skin depth direction was investigated. […]
# [3] = tested on: skin at the elbow site of AA; assay: Organ culture of AA elbow skin with Torin 1: immunohistochemical analyses of autophagy-related, keratinization and proliferation markers; assay type: cell-based, human; details: Torin 1 1 μM, tissue culture 5 days
# Description: The technique of immunohistochemical analyses will be described. The sections were immersed in acetone or a 4% PFA/PBS solution for 10 minutes to be fixed. The fixed sections were washed with PBS-T (0.05% Tween-20/PBS) for 5 minutes 3 times in total and were blocked with a 1% BSA/PBS solution for 30 minutes. Subsequently, after the sections were subjected to overnight treatment at 4° C. with a primary antibody and were washed with PBS for 5 minutes 3 times in total, a secondary antibody (Jackson ImmunoResearch, 1:100 or 1:200) fluorescent labeled with FITC, RR-X, or Cy3 was added dropwise thereto, followed by treatment at 37° C. for 30 minutes. Thereafter, the sections were washed with PBS-T for 5 minutes 3 times in total and with PBS for 5 minutes once, mounted by aqueous encapsulant containing a nuclear-staining agent (H-1200: Vector Laboratories). Refer to Table 1 for the type of primary antibody, the tissue fixation conditions, and the concentration used.
# The produced preparations were subjected to tissue observation and photographing using an inverted microscope (AxioVision, manufactured by Carl Zeiss Vision International GmbH) or a confocal laser microscope (LSM710, manufactured by Carl Zeiss Vision International GmbH). The captured images were analyzed using an image analysis software, and the expression levels of Pmel17, which is a marker of melanocyte growth and activation, cell proliferation marker Ki67, Filaggrin (FLG), Loricrin (LOR), and Transglutaminase 1 (TGM1), which are keratinization-related factors, were quantitated. Further, using RGB Profile Plot, which is an image analysis software, the fluorescence intensity distribution in the skin depth direction was investigated. The image analysis software used was “Image J” (available from imagej.nih.gov/ij/).
# From skin at the elbow site of four AA women, skin tissues were collected through punch biopsy by a dermatologist. The collected tissues were halved with a scalpel, and the tissues were cultured for 5 days in the presence or absence of mTORC1 inhibitor, Torin 1 (Cayman Chemical, #10997) to a final concentration of 1 μM. In the tissue culture, a culture medium obtained by adding 10 v/v % Fetal Bovine Serum (FBS) and antibiotics (Antibiotic-Antimycotic) to Advanced-DMEM was used (both were from Life Technologies). After the completion of culture, frozen samples were rapidly produced, and immunohistochemical analyses were performed by the same procedure as in Example 1 (2) using their sections. Refer to Table 3 for the type of primary antibody, the tissue fixation conditions, and the concentration used. Further, melanin was visualized by Fontana-Masson staining, and the epidermal stratum corneum thickness and the melanin deposition area were calculated using an image analysis software (Image J).
# [4] = tested on: keratinocytes (neonatal foreskin); assay: Autophagy-activating action: LC3-II protein in keratinocytes by Western blotting; assay type: cell-based, human; details: 48 hours culture, same toosendanin concentration in both media, control solvent (ethanol)
SMILES,amount of melanin (melanin deposition area) [1],epidermal stratum corneum thickness [1],gene expression of Involucrin (IVL) ([2]; depending on the dose),gene expression of TGM1 ([2]; depending on the dose),gene expression of SKP2 [2],phosphorylation of mTOR (p-mTOR to mTOR) (mTORC1),localization of ATG5-ATG12 in the epidermis [3],localization of ATG16L1 in the epidermis [3],distribution of Filaggrin (FLG) in the epidermis ([3]; vs untreated skin),distribution of Loricrin (LOR) in the epidermis ([3]; vs untreated skin),distribution of Transglutaminase 1 (TGM1) in the epidermis ([3]; vs untreated skin),proliferating cells (number of Ki67 positive cells) ([3]; vs untreated skin),LC3 protein ([3]; paired t-test p<0.05),p62 protein aggregation ([3]; paired t-test p<0.05),LC3-II protein in the cells [4]
CCC(=O)N1CCN(c2ccc(-n3c(=O)ccc4cnc5ccc(-c6cnc7ccccc7c6)cc5c43)cc2C(F)(F)F)CC1 [Torin 1],statistically significantly decreased,statistically significantly decreased,statistically significantly increased,statistically significantly increased,statistically significantly reducing,inhibition of phosphorylation of mTOR was observed,the localization was normalized,the localization was normalized,restored to be localized by the epidermal granular layer,restored to be localized by the epidermal granular layer,restored to be localized by the epidermal granular layer,a decrease in proliferating cells was confirmed,increased,decreased,
CC(=O)O[C@@H]1C[C@H](O)[C@@]23CO[C@@H](O)[C@]1(C)[C@@H]2C[C@@H](O)[C@]1(C)[C@@H]3C(=O)[C@H](OC(C)=O)[C@@]2(C)[C@H](c3ccoc3)C[C@H]3O[C@]321 [toosendanin],,,,,,,,,,,,,,,LC3-II protein-increasing actions
